Results taken from US9320753B2, “Organ arrest, protection and preservation” (priority 1999, dated 2016).

Tests used:
[1] = cited from earlier work
[2] = test system: isolated working rat heart; assay: Lignocaine alone in the isolated working rat heart; details: lignocaine alone at 0.5, 1.0 and 1.5 mM
From the text: Lignocaine is a local anaesthetic which blocks sodium fast channels and has antiarrhythmatic properties by reducing the magnitude of inward sodium current. The accompanying shortening of the action potential is thought to directly reduce calcium entry into the cell via Ca^2+ selective channels and Na^+/Ca^2+ exchange. Recent reports also implicate lignocaine with the scavenging of free radicals such as hydroxyl and singlet oxygen in the heart during reperfusion.

[3] = requires a carrier (DMSO); cited from earlier work
heart = assay: Arrest with pinacidil plus local anaesthetics (Example 7); details: arrest solutions with local anaesthetics
Procedure: Arrest solutions were made with pinacidil dissolved in 0.05% dimethysulfoxide (DMSO) (200 μM) the local anaesthetics prilocalne, procaine, mepivacaine and lignocaine in Krebs-Henseleit solution.

SMILES: Nc1ncnc2c1ncn2[C@@H]1O[C@H](CO)[C@@H](O)[C@H]1O [adenosine]
- half life in the blood [1]: about 10 seconds

SMILES: CCN(CC)CC(=O)Nc1c(C)cccc1C [lignocaine]
- functional recoveries [2]: highly variable functional recoveries

SMILES: CC(N/C(=N\C#N)Nc1ccncc1)C(C)(C)C (stereo not shown) [pinacidil]
- solubility in aqueous solutions [3]: low solubility in aqueous solutions
- effectiveness compared with adenosine (heart): not as effective as adenosine
